Experimental data from patent US9834558B2, “Substituted bridged urea analogs as sirtuin modulators” (GLAXOSMITHKLINE LLC, priority 2013, dated 2017).
Read-outs that look alike come from different tables or passages of the source.

Molecular target: T1, SIRT1 (Homo sapiens, UniProt Q96EB6)
T1 sequence (Q96EB6 1-747): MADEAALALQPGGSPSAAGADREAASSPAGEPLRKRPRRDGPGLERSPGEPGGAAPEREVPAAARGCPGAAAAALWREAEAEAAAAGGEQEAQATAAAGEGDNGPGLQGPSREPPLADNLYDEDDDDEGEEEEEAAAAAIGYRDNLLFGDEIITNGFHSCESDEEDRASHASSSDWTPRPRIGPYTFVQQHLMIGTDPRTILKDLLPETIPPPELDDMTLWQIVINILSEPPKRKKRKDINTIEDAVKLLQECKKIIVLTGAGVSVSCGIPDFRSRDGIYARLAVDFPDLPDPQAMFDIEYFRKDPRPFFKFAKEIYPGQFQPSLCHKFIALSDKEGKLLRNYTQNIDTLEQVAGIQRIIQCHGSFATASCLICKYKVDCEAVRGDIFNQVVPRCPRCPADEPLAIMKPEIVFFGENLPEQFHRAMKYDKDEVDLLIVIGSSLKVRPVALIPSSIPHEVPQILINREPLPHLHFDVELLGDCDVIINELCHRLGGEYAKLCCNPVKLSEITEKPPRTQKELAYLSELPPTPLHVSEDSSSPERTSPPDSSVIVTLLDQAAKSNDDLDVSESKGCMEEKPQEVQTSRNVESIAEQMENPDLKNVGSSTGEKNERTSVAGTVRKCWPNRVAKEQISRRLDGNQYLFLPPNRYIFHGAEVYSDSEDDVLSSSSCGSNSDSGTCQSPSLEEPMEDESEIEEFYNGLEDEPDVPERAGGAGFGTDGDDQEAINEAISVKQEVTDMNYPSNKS
Assay: Trp mass spectrometry assay of SIRT1 activation
Assay type: biochemical
Conditions: for TRP Activity (EC1.5): EC1.5 = concentration that results in 150% activation of SIRT1
From the text: Mass spectrometry based assays were used to identify modulators of SIRT1 activity. […] The peptide was labeled with the fluorophore STMR (excitation 540 nm/emission 580 nm) at the C-terminus. The sequence of the peptide substrate was based on p53 with several modifications. In addition, the methionine residue naturally present in the sequence was replaced with the norleucine because the methionine may be susceptible to oxidation during synthesis and purification. The Trp based assay utilized a peptide having an amino acid residues as follows: Ac-R-H-K-K(Ac)-W-NH2 (SEQ ID NO: 2).
The Trp mass spectrometry assay was conducted as follows. 0.5 μM peptide substrate and 120 μM βNAD^+ were incubated with 10 nM SIRT1 for 25 minutes at 25° C. in a reaction buffer (50 mM HEPES pH 7.5, […], 1 mM DTT, 0.05% BSA). The SIRT1 protein was obtained by cloning the SirT1 gene into a T7-promoter containing vector, which was then expressed in BL21(DE3) bacterial cells and purified as described in further detail below. Test compound was added at varying concentrations to this reaction mixture and the resulting reactions were monitored. After the 25 minute incubation with SIRT1, 10 μL of 10% formic acid was added to stop the reaction. The resulting reactions were sealed and frozen for later mass spec analysis. The relative SIRT1 activity was then determined by measuring the amount of O-acetyl-ADP-ribose (OAADPR) formed (or, alternatively, the amount of deacetylated Trp peptide generated) by the NAD-dependent sirtuin deacetylation reaction in the presence of varying concentrations of the test compound versus control reactions lacking the test compound. The degree to which the test agent activated deacetylation by SIRT1 was expressed as EC1.5 (i.e., the concentration of compound required to increase SIRT1 activity by 50% over the control lacking test compound), and Percent Maximum Activation (i.e., the maximum activity relative to control (100%) obtained for the test compound).
This time point was the same as that used for test compounds and, within the linear range, the endpoint represents a change in velocity.
For the above assay, SIRT1 protein was expressed and purified as follows. The SirT1 gene was cloned into a T7-promoter containing vector and transformed into BL21(DE3). The protein was expressed by induction with 1 mM IPTG as an N-terminal His-tag fusion protein at 18° C. overnight and harvested at 30,000×g. Cells were lysed with lysozyme in lysis buffer (50 mM Tris-HCl, 2 mM Tris[2-carboxyethyl]phosphine (TCEP), 10 μM ZnCl2, 200 mM NaCl) and further treated with sonication for 10 min for complete lysis. The protein was purified over a Ni-NTA column (Amersham) and fractions containing pure protein were pooled, concentrated and run over a sizing column (Sephadex S200 26/60 global). The peak containing soluble protein was collected and run on an Ion-exchange column (MonoQ). Gradient elution (200 mM-500 mM NaCl) yielded pure protein. This protein was concentrated and dialyzed against dialysis buffer (20 mM Tris-HCl, 2 mM TCEP) overnight. The protein was aliquoted and frozen at −80° C. until further use.
“NT” means not tested; “ND” means not determinable.

[1] = Trp mass spectrometry assay, EC1.5 = concentration of test compound that results in 150% activation of SIRT1
[2] = concentration giving 150% activation of SIRT1, Trp peptide substrate
[3] = Trp peptide assay, maximum activity relative to control (100%), read-out: TRP MAX RESP (percent maximum fold activation)
[4] = Trp mass spectrometry assay, concentration of test compound giving 150% activation of SIRT1

In the case of O=C(NCCCc1ccccc1)N1c2nc(-c3cccc(C(F)(F)F)c3)ccc2N2CC[C@H]1C2 [Example 599], the “Tryp AVG EC1.5 (μM)” value [1] is reported as “B (B (EC1.5 1-25 μM))”.
With Cc1nc(NC(=O)N2c3nc(-c4cccc(C(F)(F)F)c4)ccc3N3C[C@@H](O)[C@H]2C3)sc1C [Example 699] the “Tryp AVG EC1.5 (μM)” value [2] was “B (B (EC1.5 1-25 μM))”.
In the case of O=C(Nc1cc(F)ccn1)N1c2nc(-c3cccc(OC(F)(F)F)c3)ccc2N2CC[C@H]1C2 [Compound 174], the Emax (Trp peptide substrate, percent maximum fold activation of SIRT1, read-out: Tryp % Fold Act) is reported as > 150%.
Cc1ccc(-c2ccc3c(n2)N(C(=O)Nc2cncc(F)c2)[C@H]2CCCN3C2)cn1 [Example 477] was tested, and the “Tryp AVG EC1.5 (μM)” value [1] was “B (B (EC1.5 1-25 μM))”.
For COc1nccnc1NC(=O)N1c2nc(-c3ccnc(C)c3)ccc2N2CC[C@H]1C2 [Example 501], the “Tryp AVG EC1.5 (μM)” value [1] was “B (B (EC1.5 1-25 μM))”.
In the case of O=C1OC2(c3ccc(O)cc3Oc3cc(O)ccc32)c2ccc(NC(=S)NCc3cn(C4=CC(NC(=O)N5c6nc(-c7cccc(C(F)(F)F)c7)ccc6N6CC[C@H]5C6)CC=C4)nn3)cc21 (stereo partly shown) [Example 608], the “Tryp AVG EC1.5 (μM)” value [1] is reported as “C (C (EC1.5>25 μM))” and the Emax (Trp mass spectrometry assay, percent maximum fold activation of SIRT1, read-out: Tryp % Fold Act) is reported as < 150%.
O=C(Nc1ccccn1)N1c2nc(N3CCC[C@H]3C(F)(F)F)ccc2N2CC[C@H]1C2 [(9S)-N-(pyridin-2-yl)-5-[(2S)-2-(trifluoromethyl)pyrrolidin-1-yl]-1,6,8-triazatricyclo[7.2.1.0 {2,7}]dodeca-2(7),3,5-triene-8-carboxamide] was tested, and the “TRP Activity (EC1.5)” value (Trp peptide assay) was “B (B (EC1.5 1-25 μM))” and the Emax [3] was > 150%.
With O=C(Nc1ccncc1)N1c2nc(-c3cccc(Cl)c3)ccc2N2CCC[C@H]1C2 [Example 409] the “Tryp AVG EC1.5 (μM)” value [4] was “A (A (EC1.5<1 μM))”.
O=C(Nc1ccccn1)N1c2nc(-c3cc(F)cc(C(F)(F)F)c3)ccc2N2CC[C@H]1C2 [Example 333] was tested, and the “Tryp AVG EC1.5 (μM)” value [4] was “A (A (EC1.5<1 μM))”.
Cc1cc(-c2ccc3c(n2)N(C(=O)Nc2ncn(C)n2)[C@H]2CCN3C2)ccn1 [(9S)-N-(1-methyl-1H-1,2,4-triazol-3-yl)-5-(2-methylpyridin-4-yl)-1,6,8-triazatricyclo[7.2.1.0 {2,7}]dodeca-2(7),3,5-triene-8-carboxamide] was tested, and the “TRP Activity (EC1.5)” value (Trp peptide assay) was “C (C (EC1.5>25 μM))” and the Emax [3] was > 150%.
For CC(=O)O[C@H]1CN2C[C@H]1N(C(=O)Nc1ccccn1)c1nc(-c3cccc(C(F)(F)F)c3)ccc12 [Example 634], the “Tryp AVG EC1.5 (μM)” value [2] was “C (C (EC1.5>25 μM))”.
In the case of CCn1cc(-c2ccc3c(n2)N(C(=O)Nc2cnccn2)[C@H]2CCN3C2)cn1 [(9S)-5-(1-ethyl-1H-pyrazol-4-yl)-N-(pyrazin-2-yl)-1,6,8-triazatricyclo[7.2.1.0 {2,7}]dodeca-2(7),3,5-triene-8-carboxamide], the “TRP Activity (EC1.5)” value (Trp peptide assay) is reported as “B (B (EC1.5 1-25 μM))” and the Emax [3] is reported as > 150%.
COC(=O)N1CCCN(c2ccc3c(n2)N(C(=O)Nc2ccncn2)[C@H]2CCCN3C2)CC1 [Example 446] was tested, and the “Tryp AVG EC1.5 (μM)” value [1] was “B (B (EC1.5 1-25 μM))”.
With Cc1cncc(NC(=O)N2c3nc(-c4cccc(Cl)c4)ccc3N3C[C@@H](O)[C@H]2C3)c1 [Example 676] the “Tryp AVG EC1.5 (μM)” value [2] was “A (A (EC1.5<1 μM))”.
With Cc1cc(-c2ccc3c(n2)N(C(=O)Nc2nc(C)c(C)s2)[C@H]2CCN3C2)ccn1 [Example 481] the “Tryp AVG EC1.5 (μM)” value [1] was “A (A (EC1.5<1 μM))”.
For Cc1nc(NC(=O)N2c3nc(-c4cccnc4)ccc3N3CCC[C@H]2C3)sc1C [Example 466], the “Tryp AVG EC1.5 (μM)” value [1] was “B (B (EC1.5 1-25 μM))”.
Cc1cc(NC(=O)N2c3nc(-c4cccc(C(F)(F)F)c4)ccc3N3CC[C@H]2C3)cc(Br)n1 [Example 540] was tested, and the “Tryp AVG EC1.5 (μM)” value [1] was “A (A (EC1.5<1 μM))”.
Cc1cc(-c2ccc3c(n2)N(C(=O)Nc2cnccn2)[C@H]2CCN3C2)cnc1C#N [(9S)-5-(6-cyano-5-methylpyridin-3-yl)-N-(pyrazin-2-yl)-1,6,8-triazatricyclo[7.2.1.0 {2,7}]dodeca-2(7),3,5-triene-8-carboxamide] was tested, and the “TRP Activity (EC1.5)” value (Trp peptide assay) was “B (B (EC1.5 1-25 μM))” and the Emax [3] was > 150%.
For CC(CO)NC(=O)c1ccc2c(n1)N(C(=O)Nc1ccccn1)[C@H]1CCN2C1 (stereo partly drawn) [(9S)-5-N-(1-hydroxypropan-2-yl)-8-N-(pyridin-2-yl)-1,6,8-triazatricyclo[7.2.1.0^{2,7}]dodeca-2(7),3,5-triene-5,8-dicarboxamide], the “TRP Activity (EC1.5)” value (Trp peptide assay) was “B (B (EC1.5 1-25 μM))” and the Emax [3] was > 150%.
With COc1cc(-c2ccc3c(n2)N(C(=O)Nc2cnccn2)[C@H]2CCN3C2)ccn1 [(9S)-5-(2-methoxypyridin-4-yl)-N-(pyrazin-2-yl)-1,6,8-triazatricyclo[7.2.1.0 {2,7}]dodeca-2(7),3,5-triene-8-carboxamide] the “TRP Activity (EC1.5)” value (Trp peptide assay) was “B (B (EC1.5 1-25 μM))” and the Emax [3] was > 150%.
C[C@H]1CNCCN1c1ccc2c(n1)N(C(=O)Nc1cnccn1)[C@H]1CCN2C1 [(9S)-5-[(2S)-2-methylpiperazin-1-yl]-N-(pyrazin-2-yl)-1,6,8-triazatricyclo[7.2.1.0 {2,7}]dodeca-2,4,6-triene-8-carboxamide] was tested, and the “TRP Activity (EC1.5)” value (Trp peptide assay) was “C (C (EC1.5>25 μM))” and the Emax [3] was < 150%.
O=C(Nc1cnccn1)N1c2nc(-c3cc(F)cc(F)c3)ccc2N2CC[C@H]1C2 [Example 397] was tested, and the “Tryp AVG EC1.5 (μM)” value [4] was “C (C (EC1.5>25 μM))”.
For O=C(Nc1cnccn1)N1c2nc(-c3ccc(Cl)c(Cl)c3)ccc2N2CC[C@H]1C2 [Example 461], the “Tryp AVG EC1.5 (μM)” value [1] was “A (A (EC1.5<1 μM))”.
In the case of O=C(Nc1cnccn1)N1c2nc(N3CCOC(C4CC4)C3)ccc2N2CC[C@H]1C2 (stereo partly drawn) [(9S)-5-(2-cyclopropylmorpholin-4-yl)-N-(pyrazin-2-yl)-1,6,8-triazatricyclo[7.2.1.0 {2,7}]dodeca-2,4,6-triene-8-carboxamide], the “TRP Activity (EC1.5)” value (Trp peptide assay) is reported as “B (B (EC1.5 1-25 μM))” and the Emax [3] is reported as > 150%.
With CC(C)(C)OC(=O)N1CCc2ccc(NC(=O)N3c4nc(-c5cccc(C(F)(F)F)c5)ccc4N4CC[C@H]3C4)cc2C1 [Example 609] the “Tryp AVG EC1.5 (μM)” value [1] was “B (B (EC1.5 1-25 μM))”.
O=C(Nc1cccc(-c2ccsc2)n1)N1c2nc(-c3cccc(C(F)(F)F)c3)ccc2N2CC[C@H]1C2 [Example 653] was tested, and the “Tryp AVG EC1.5 (μM)” value [2] was “A (A (EC1.5<1 μM))”.
O=C(Nc1cncc(F)c1)N1c2nc(-c3cncc(F)c3)ccc2N2CCC1CC2 [Example 571] was tested, and the “Tryp AVG EC1.5 (μM)” value [1] was “B (B (EC1.5 1-25 μM))”.
In the case of O=C(Nc1cncc(F)c1)N1c2nc(-c3ccnc(N4CC[C@@H](F)C4)c3)ccc2N2CC[C@H]1C2 [Example 464], the “Tryp AVG EC1.5 (μM)” value [1] is reported as “B (B (EC1.5 1-25 μM))”.
With COc1cc(NC(=O)N2c3nc(-c4cccc(Cl)c4)ccc3N3CC[C@H]2C3)nc(OC)n1 [Example 103] the “Tryp AVG EC1.5 (μM)” value (Trp peptide substrate, concentration giving 150% activation of SIRT1) was “B (B (EC1.5 1-25 μM))”.
In the case of O=C(Nc1ccc(Br)c(-c2cnco2)c1)N1c2nc(-c3cccc(C(F)(F)F)c3)ccc2N2CC[C@H]1C2 [Example 672], the “Tryp AVG EC1.5 (μM)” value [2] is reported as “A (A (EC1.5<1 μM))”.
In the case of O=C(Nc1nncs1)N1c2nc(-c3cccc(C(F)(F)F)c3)ccc2N2CC[C@H]1C2 [Example 646], the “Tryp AVG EC1.5 (μM)” value [2] is reported as “A (A (EC1.5<1 μM))”.
